IC50 data for 26 compounds are collected here from patent US10722514B2 (FLX Bio, Inc., priority 2017, dated 2020).

The structures appear in SMILES notation. Structures can show the parent of a compound that is named as a salt.

T1 sequence (Q93009 whole entry): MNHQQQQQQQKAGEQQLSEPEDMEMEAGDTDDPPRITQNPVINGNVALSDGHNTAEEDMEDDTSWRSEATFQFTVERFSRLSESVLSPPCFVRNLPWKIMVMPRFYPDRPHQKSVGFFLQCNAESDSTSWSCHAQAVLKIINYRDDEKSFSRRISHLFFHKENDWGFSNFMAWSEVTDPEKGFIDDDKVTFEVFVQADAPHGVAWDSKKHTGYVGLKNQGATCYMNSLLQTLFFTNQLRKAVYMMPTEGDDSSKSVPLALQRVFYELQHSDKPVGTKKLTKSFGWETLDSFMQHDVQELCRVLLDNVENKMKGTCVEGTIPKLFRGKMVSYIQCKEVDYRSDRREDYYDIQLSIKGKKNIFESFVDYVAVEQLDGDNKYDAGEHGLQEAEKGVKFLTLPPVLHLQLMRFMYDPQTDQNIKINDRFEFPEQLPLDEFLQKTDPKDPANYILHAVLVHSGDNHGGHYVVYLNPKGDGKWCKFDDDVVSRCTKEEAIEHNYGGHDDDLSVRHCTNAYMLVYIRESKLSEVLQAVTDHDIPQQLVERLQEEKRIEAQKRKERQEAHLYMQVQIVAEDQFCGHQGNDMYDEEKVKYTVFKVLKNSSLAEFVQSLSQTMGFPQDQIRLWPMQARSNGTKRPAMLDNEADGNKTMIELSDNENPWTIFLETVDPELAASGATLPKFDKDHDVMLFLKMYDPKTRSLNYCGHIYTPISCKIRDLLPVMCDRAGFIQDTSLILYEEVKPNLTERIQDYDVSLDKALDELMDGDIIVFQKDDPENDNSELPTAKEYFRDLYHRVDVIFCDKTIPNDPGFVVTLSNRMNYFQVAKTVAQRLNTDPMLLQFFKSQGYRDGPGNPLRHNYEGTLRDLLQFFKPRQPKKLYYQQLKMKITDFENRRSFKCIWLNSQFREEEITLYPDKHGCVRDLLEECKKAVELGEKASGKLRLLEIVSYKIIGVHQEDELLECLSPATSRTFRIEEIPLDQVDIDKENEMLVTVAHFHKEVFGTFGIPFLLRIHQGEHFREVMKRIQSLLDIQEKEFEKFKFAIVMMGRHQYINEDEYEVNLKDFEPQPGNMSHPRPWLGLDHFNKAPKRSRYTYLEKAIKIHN

The first assay concerns the target T1, recombinant full-length USP7 (Homo sapiens, UniProt Q93009).
T1 construct: A 25 μl reaction volume containing recombinant full-length USP7 (62 pM)
The assay is described as follows: USP7-mediated ubiquitin-rhodamine cleavage assay. It counts as biochemical. To be noted: recombinant full-length USP7 62 pM; ubiquitin-rhodamine 100 nM; 30-minute incubation with compound, 1 hour reaction at room temperature; read-out: Potency: USP7 IC50. In short, it runs like this:
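Compounds are first incubated with 62 pM enzyme for 30 min at room temperature in pH 7.3 HEPES buffer containing TCEP and BSA. Cleavage of 100 nM ubiquitin-rhodamine proceeds for 1 h before an acid quench, and IC50 is derived from fluorescence.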
A word on the IC50: it is the midpoint of a concentration-inhibition curve. As for `CO[C@H]1CNC[C@H]1Oc1c(C)cc(Cl)cc1-c1ccnc2cc(CN3C(=O)C4C(C3=O)C4(C)C)sc12` (stereo partly drawn) [Example 388, 3-[[7-[5-chloro-2-[(3R,4S)-4-methoxypyrrolidin-3-yl]oxy-3-methyl-phenyl]thieno[3,2-b]pyridin-2-yl]methyl]-6,6-dimethyl-3-azabicyclo[3.1.0]hexane-2,4-dione dihydrochloride], the IC50 was less than 1000 nM.
With `Cc1cc(Cl)cc(-c2ccnc3cc(CN4C(=O)C5CC5C4=O)sc23)c1O[C@@H]1CCNC[C@@H]1C` (stereo partly drawn) [Example 324, 3-[[7-[5-chloro-3-methyl-2-[[(3S,4R)-3-methyl-4-piperidyl]oxy]phenyl]thieno[3,2-b]pyridin-2-yl]methyl]-3-azabicyclo[3.1.0]hexane-2,4-dione], the IC50 is less than 1000 nM.
On the same count and under the same terms, then `CCC(O)c1cc2nccc(-c3cc(Cl)cc(C)c3OCC3(CC)CNC3)c2s1` (centres unmarked) [Example 38, 1-(7-(5-Chloro-2-((3-ethylazetidin-3-yl)methoxy)-3-methylphenyl)thieno[3,2-b]pyridin-2-yl)propan-1-ol], with less than 1000 nM; and `Cc1cc(Cl)cc(-c2ccnc3cc(CO)sc23)c1O[C@@H]1CNC[C@@H]1O` [Example 78, (3S,4R)-4-(4-Chloro-2-(2-(hydroxymethyl)thieno[3,2-b]pyridin-7-yl)-6-methylphenoxy)pyrrolidin-3-ol], with 1000 to 10000 nM.
`O=C1CCC(=O)N1Cc1cc2nccc(-c3cc(C(F)(F)F)cc(Cl)c3O[C@@H]3CNC[C@@H]3F)c2s1` [Example 54, 1-((7-(3-Chloro-2-(((3R,4S)-4-fluoropyrrolidin-3-yl)oxy)-5-(trifluoromethyl)phenyl)thieno[3,2-b]pyridin-2-yl)methyl)pyrrolidine-2,5-dione]: the IC50 is less than 1000 nM.
Still for that read-out and setting: then `Cc1cc(Cl)cc(-c2ccnc3cc(CO)sc23)c1OCC1(C)CNC1` [Example 17, (7-(5-Chloro-3-methyl-2-((3-methylazetidin-3-yl)methoxy)phenyl)thieno[3,2-b]pyridin-2-yl)methanol], with 1000 to 10000 nM; and `Cc1cc(Cl)cc(-c2ccnc3cc(CN4C(=O)CCC4=O)sc23)c1O[C@@H]1CCCNCC1` [Example 270, (R)-1-((7-(2-(Azepan-4-yloxy)-5-chloro-3-methylphenyl)thieno[3,2-b]pyridin-2-yl)methyl)pyrrolidine-2,5-dione], with less than 1000 nM.
As to `CC[C@@H](c1cc2nccc(-c3cc(Cl)cc(C)c3O[C@@H]3CNC[C@@H]3F)c2s1)N1C(=O)CCC1=O` [Example 137, 1-((S)-1-(7-(5-Chloro-2-(((3R,4S)-4-fluoropyrrolidin-3-yl)oxy)-3-methylphenyl)thieno[3,2-b]pyridin-2-yl)propyl)pyrrolidine-2,5-dione], the IC50 is less than 1000 nM.
For `Cc1cc(Cl)cc(-c2ncnc3cc(CN4C(=O)C5C(C4=O)C5(C)C)sc23)c1O[C@@H]1CN(C)C[C@@H]1F` (stereo partly drawn) [Example 348, 3-[[4-[5-chloro-2-[(3R,4S)-4-fluoro-1-methyl-pyrrolidin-3-yl]oxy-3-methyl-phenyl]thieno[3,2-d]pyrimidin-6-yl]methyl]-6,6-dimethyl-3-azabicyclo[3.1.0]hexane-2,4-dione dihydrochloride], the IC50 is less than 1000 nM.
Same read-out and setting: then `Cc1cc(Cl)cc(-c2ccnc3cc(CN4C(=O)CCNC4=O)sc23)c1OC1CCNCC1` [Example 222, 3-((7-(5-Chloro-3-methyl-2-(piperidin-4-yloxy)phenyl)thieno[3,2-b]pyridin-2-yl)methyl)dihydropyrimidine-2,4(1H,3H)-dione], with less than 1000 nM; and `Cc1cc(Cl)cc(-c2ccnc3cc(CN4C(=O)COC4=O)sc23)c1O[C@H]1CCCNC1` [Example 330, 3-[[7-[5-chloro-3-methyl-2-[[(3S)-3-piperidyl]oxy]phenyl]thieno[3,2-b]pyridin-2-yl]methyl]oxazolidine-2,4-dione; 2,2,2-trifluoroacetic acid], with less than 1000 nM.
Same read-out and setting: in the case of `CCC(O)c1cc2ncnc(-c3cc(C#N)cc(C)c3O[C@@H]3CNC[C@@H]3F)c2s1` (stereo partly drawn) [Example 95, 4-(((3R,4S)-4-Fluoropyrrolidin-3-yl)oxy)-3-(6-(1-hydroxypropyl)thieno[3,2-d]pyrimidin-4-yl)-5-methylbenzonitrile] it was less than 1000 nM.
As for `Cc1cc(Cl)cc(-c2ccnc3cc(CNS(C)(=O)=O)sc23)c1O[C@@H]1CNC[C@@H]1F` [Example 107, N-((7-(5-Chloro-2-(((3R,4S)-4-fluoropyrrolidin-3-yl)oxy)-3-methylphenyl)thieno[3,2-b]pyridin-2-yl)methyl)methanesulfonamide], the IC50 is 1000 to 10000 nM.
Same read-out and setting: then `Cc1cc(Cl)cc(-c2ccnc3cc(CN4C(=O)C5C(C4=O)C5(C)C)sc23)c1O[C@H]1CCNC[C@H]1F` (stereo partly drawn) [Example 392, 3-[[7-[5-chloro-2-[[(3R,4S)-3-fluoro-4-piperidyl]oxy]-3-methyl-phenyl]thieno[3,2-b]pyridin-2-yl]methyl]-6,6-dimethyl-3-azabicyclo[3.1.0]hexane-2,4-dione; 2,2,2-trifluoroacetic acid], with less than 1000 nM.
Regarding `Cc1cc(Cl)cc(-c2ccnc3cc(Cn4c(=O)ccn(C(C)(C)C)c4=O)sc23)c1O[C@H]1CCCNC1` [Example 282], the half-maximal inhibitory concentration (IC50) is less than 1000 nM.
As to `Cc1cc(Cl)cc(-c2ccnc3cc(CO)sc23)c1O[C@@H]1CC[C@@H](N(C)C)C1` [Example 93, (7-(5-Chloro-2-(((1R,3R)-3-(dimethylamino)cyclopentyl)oxy)-3-methylphenyl)thieno[3,2-b]pyridin-2-yl)methanol], the IC50 was 10000 to 30000 nM.
Still for that read-out and setting: then `Cc1cc(Cl)cc(-c2ccnc3cc(CN4C(=O)CCC4=O)sc23)c1O[C@H]1[C@@H]2CNC[C@H]1C2` [Example 206, 1-((7-(2-(((1R,5S,6s)-3-Azabicyclo[3.1.1]heptan-6-yl)oxy)-5-chloro-3-methylphenyl)thieno[3,2-b]pyridin-2-yl)methyl)pyrrolidine-2,5-dione], with less than 1000 nM.
Still for that read-out and setting: then `Cc1cc(Cl)cc(-c2ccnc3cc(CCN4C(=O)c5ccccc5S4(=O)=O)sc23)c1O[C@@H]1CNC[C@@H]1F` [Example 139, 2-(2-(7-(5-Chloro-2-(((3R,4S)-4-fluoropyrrolidin-3-yl)oxy)-3-methylphenyl)thieno[3,2-b]pyridin-2-yl)ethyl)benzo[d]isothiazol-3(2H)-one 1,1-dioxide], with 10000 to 30000 nM.

The assay is the same for the next values; noted with them: recombinant full-length USP7 62 pM; ubiquitin-rhodamine 100 nM; 30-minute pre-incubation, 1 hour reaction at room temperature; read-out: Potency (USP7 IC50).
`Cc1cc(Cl)cc(-c2ccnc3cc(Cn4c(=O)ccn(CC(F)(F)F)c4=O)sc23)c1OCCN1CCCC1` [Example 661, 3-[[7-[5-chloro-3-methyl-2-(2-pyrrolidin-1-ylethoxy)phenyl]thieno[3,2-b]pyridin-2-yl]methyl]-1-(2,2,2-trifluoroethyl)pyrimidine-2,4-dione; 2,2,2-trifluoroacetic acid]: the half-inhibitory concentration (IC50) was less than 1000 nM.
The same measure, in the same setting: then `Cc1cc(C(F)(F)F)cc(-c2ccnc3cc(Cn4c(=O)ccn(C)c4=O)sc23)c1O[C@@H]1CC[C@@H](N)C1` [Example 456, 3-[[7-[2-[(1R,3R)-3-aminocyclopentoxy]-3-methyl-5-(trifluoromethyl)phenyl]thieno[3,2-b]pyridin-2-yl]methyl]-1-methyl-pyrimidine-2,4-dione dihydrochloride], with less than 1000 nM; and `Cc1cc(Cl)cc(-c2ccnc3cc(CN4C(=O)CN(CC(F)(F)F)C4=O)sc23)c1OC1CCNCC1` [Example 649, 3-[[7-[5-chloro-3-methyl-2-(4-piperidyloxy)phenyl]thieno[3,2-b]pyridin-2-yl]methyl]-1-(2,2,2-trifluoroethyl)imidazolidine-2,4-dione; 2,2,2-trifluoroacetic acid], with less than 1000 nM; and `Cc1cc(Cl)cc(-c2ccnc3cc(Cn4c(=O)ccn(C)c4=O)sc23)c1O[C@@H]1CN[C@H](C(=O)O)C1` [Example 486, (2S,4S)-4-[4-chloro-2-methyl-6-[2-[(3-methyl-2,6-dioxo-pyrimidin-1-yl)methyl]thieno[3,2-b]pyridin-7-yl]phenoxy]pyrrolidine-2-carboxylic acid], with less than 1000 nM.
On the same count and under the same terms, then `Cc1cc(Cl)cc(-c2ccnc3cc(Cn4c(=O)ccn(CC(F)(F)F)c4=O)sc23)c1OC1CN2CCC1C2` [Example 589, 3-[[7-[2-[[(1S,3S,4R)-1-azabicyclo[2.2.1]heptan-3-yl]oxy]-5-chloro-3-methyl-phenyl]thieno[3,2-b]pyridin-2-yl]methyl]-1-(2,2,2-trifluoroethyl)pyrimidine-2,4-dione], with less than 1000 nM; and `Cc1cc(Cl)cc(-c2ccnc3cc(Cn4c(=O)ccn(CC(F)(F)F)c4=O)sc23)c1O[C@H]1CC[C@](C)(N2CCOCC2)C1` [Example 612, 3-[[7-[5-chloro-3-methyl-2-[(1S,3S)-3-methyl-3-morpholino-cyclopentoxy]phenyl]thieno[3,2-b]pyridin-2-yl]methyl]-1-(2,2,2-trifluoroethyl)pyrimidine-2,4-dione; 2,2,2-trifluoroacetic acid], with less than 1000 nM; and `Cc1cc(Cl)cc(-c2ccnc3cc(Cn4c(=O)ccn(CC(F)(F)F)c4=O)sc23)c1O[C@@H]1CN(C2COC2)C[C@@H]1C` [Example 606, 3-[[7-[5-chloro-3-methyl-2-[(3S,4S)-4-methyl-1-(oxetan-3-yl)pyrrolidin-3-yl]oxy-phenyl]thieno[3,2-b]pyridin-2-yl]methyl]-1-(2,2,2-trifluoroethyl)pyrimidine-2,4-dione], with less than 1000 nM.
`Cc1cc(Cl)cc(-c2ccnc3cc(Cn4c(=O)ccn(C)c4=O)sc23)c1O[C@@H]1CNC[C@@H]1C(F)(F)F` [Example 441, 3-[[7-[5-chloro-3-methyl-2-[(3S,4S)-4-(trilfuoromethyl)pyrrolidin-3-yl]oxy-phenyl]thieno[3,2-b]pyridin-2-yl]methyl]-1-methyl-pyrimidine-2,4-dione]: the IC50 was less than 1000 nM.
